In PubChem BioAssay (NCI):
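Tested at 5 concentrations; 48 h exposure; 96-well plates; endpoints linearly interpolated, else capped at highest concentration. At the TGI there is no net growth.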

Columns and labels:
Assay in all cases: inhibition of tumour cell growth, NCI panel, 48 h
[1] = test system: M19-MEL melanoma
[2] = test system: RXF-631 renal
[3] = test system: IGROV1 ovarian
[4] = test system: DMS 273 small cell lung
[5] = test system: HOP-62 NSCLC
[6] = test system: OVCAR-8 ovarian
[7] = test system: LXFL 529 NSCLC
[8] = test system: DLD-1 colon
[9] = test system: CCRF-CEM leukemia
[10] = test system: SNB-78 CNS
[11] = test system: KM20L2 colon
[12] = test system: DU-145 prostate
[13] = test system: HS 578T breast
[14] = test system: BT-549 breast
[15] = test system: PC-3 prostate
[16] = test system: RXF 393 renal
[17] = test system: MDA-MB-435
[18] = test system: KM12 colon
[19] = test system: A549 NSCLC
[20] = test system: MCF7 breast

| Compound | TGI [1] [µM] | TGI [2] [µM] | TGI [3] [µM] | TGI [4] [µM] | TGI [5] [µM] | TGI [6] [µM] | TGI [7] [µM] | TGI [8] [µM] | TGI [9] [µM] | TGI [10] [µM] | TGI [11] [µM] | TGI [12] [µM] | TGI [13] [µM] | TGI [14] [µM] | TGI [15] [µM] | TGI [16] [µM] | TGI [17] [µM] | TGI [18] [µM] | TGI [19] [µM] | TGI [20] [µM] |
| --- | --- | --- | --- | --- | --- | --- | --- | --- | --- | --- | --- | --- | --- | --- | --- | --- | --- | --- | --- | --- |
| COc1ccc(/C(Cl)=C(\C=O)c2ccc(F)cc2)cc1OC | 66.1 | 49.2 | > 100 | 97.3 | 52.6 | > 100 | 76.7 | 78.4 | 48.6 | 62.5 | 34.1 |  |  |  |  |  |  |  |  |  |
| N=C(N)c1ccc(N=Nc2c(O)ccc3c2[nH]c2ccccc23)cc1 |  |  | > 100 |  | > 100 |  |  |  |  |  |  | > 100 | > 100 | 99.4 | > 60.3 | > 100 | > 39.6 |  |  |  |
| COc1ccc2nc3ccccc3c(NCCCCCCN(CCCl)CCCl)c2c1 | 5.12 | 1.96 | 3.85 | 0.206 | 2.42 |  | 1.72 | 2.2 |  | 2.13 | 2.07 | 1.47 |  |  |  |  |  | 1.14 | 6.06 | 0.157 |
| COC(=O)C1=C(C(=O)OC)SC2(S1)C1=C(CCCC1)SC(C(=O)OC)=C2C(=O)OC |  |  | 20.6 |  | 17.8 | 17.3 |  |  | 8.16 |  |  | 3.54 | 30.7 | 25.1 | 17.8 | 6.91 | 10 | 19 | 31.1 | 8.43 |
